Source: ChEMBL document CHEMBL1122107, “Structure-antitumor activity relationships of 9-anilinoacridines using pattern recognition” (1982)

Tested on: L1210
Test: Tumor cell selectivity determined as maximal percent increase in life span (ILSmax) at LD10 dosage level in L1210 cells
Assay type: functional, Mus musculus

Row | SMILES | ILSmax
1 | NC(=O)CCCCCc1ccc(Nc2c3ccccc3nc3ccccc23)cc1 | 97%
2 | NCCCCc1ccc(NC(=O)Nc2ccc(N=c3c4ccccc4[nH]c4ccccc34)cc2)cc1 | 170%
3 | N=C(N)NCCCS(=O)(=O)Nc1ccc(Nc2c3ccc(N)cc3nc3ccc(N)cc23)cc1 | 129%
4 | Cc1cccc2c(Nc3ccc(NS(=O)(=O)c4ccc(N)cc4)cc3)c3ccccc3nc12 | 55%
5 | CN(c1ccccc1Nc1c2ccccc2nc2ccccc12)S(C)(=O)=O | 25%
6 | CCCCS(=O)(=O)Nc1ccc(Nc2c3ccccc3nc3cc([N+](=O)[O-])ccc23)cc1 | 110%
7 | Nc1ccc(Nc2c3ccccc3nc3cc([N+](=O)[O-])ccc23)cc1 | 30%
8 | O=C(O)CCCCc1ccc(Nc2c3ccccc3nc3ccccc23)cc1 | 187%
9 | COc1ccc2nc3cc([N+](=O)[O-])ccc3c(Nc3ccc(NS(C)(=O)=O)cc3)c2c1 | 55%
10 | COc1cc(NS(C)(=O)=O)ccc1Nc1c2ccccc2nc2c1ccc1ncccc12 | 83%
11 | NCCC(=O)NCCS(=O)(=O)Nc1ccc(Nc2c3ccccc3nc3ccccc23)cc1 | 25%
12 | CCS(=O)(=O)Nc1ccc(Nc2c3ccccc3nc3cc(NC(C)=O)ccc23)cc1 | 115%
13 | Cc1ccc2c(Nc3ccc(NS(C)(=O)=O)cc3)c3cccc(C)c3nc2c1 | 70%
14 | NCCc1ccc(Nc2c3ccccc3nc3cc([N+](=O)[O-])ccc23)cc1 | 25%
15 | CS(=O)(=O)Nc1ccccc1Nc1c2ccccc2nc2ccccc12 | 25%
16 | CCCC(=O)N(c1ccc(Nc2c3ccccc3nc3cc(N)ccc23)cc1)S(C)(=O)=O | 55%
17 | CCN(CC)c1ccc(Nc2c3ccccc3nc3ccccc23)cc1 | 25%
18 | CC(=O)Nc1ccc2c(Nc3ccc(NS(C)(=O)=O)cc3)c3ccc(Cl)cc3nc2c1 | 60%
19 | CCCCC(=O)N(c1ccc(Nc2c3ccccc3nc3c(C)cccc23)c(OC)c1)S(C)(=O)=O | 50%
20 | CC(=O)c1ccc(N=c2c3ccccc3[nH]c3cc(N)ccc23)cc1 | 52%
21 | NC(=O)CCCCCCCCc1ccc(Nc2c3ccccc3nc3ccccc23)cc1 | 26%
22 | CCCCCNS(=O)(=O)c1ccc(N=c2c3ccccc3[nH]c3cc(N)ccc23)cc1 | 50%
23 | COc1cc(NS(C)(=O)=O)ccc1Nc1c2ccccc2nc2cc(C#N)ccc12 | 93%

Row | SMILES | ILSmax
24 | CS(=O)(=O)Nc1ccc(Nc2c3ccccc3nc3cc(N)ccc23)cc1 | 134%
25 | CCCC(=O)N(c1ccc(Nc2c3ccccc3nc3cc(NC(C)=O)ccc23)cc1)S(C)(=O)=O | 95%
26 | Cc1ccc2c(Nc3ccc(NS(C)(=O)=O)cc3)c3ccc([N+](=O)[O-])cc3nc2c1 | 170%
27 | CCCCCCS(=O)(=O)Nc1ccc(Nc2c3ccccc3nc3cc([N+](=O)[O-])ccc23)c(OC)c1 | 74%
28 | Cc1cc(NS(C)(=O)=O)ccc1Nc1c2ccccc2nc2cc([N+](=O)[O-])ccc12 | 70%
29 | CCCCCS(=O)(=O)Nc1ccc(Nc2c3ccccc3nc3cc([N+](=O)[O-])ccc23)c(OC)c1 | 72%
30 | COc1cc(NS(C)(=O)=O)ccc1N=c1c2ccccc2[nH]c2c(CN(C)C)cccc12 | 72%
31 | O=S(=O)(CCl)Nc1ccc(Nc2c3ccccc3nc3ccccc23)cc1 | 55%
32 | CCCC(=O)N(c1ccc(Nc2c3ccccc3nc3c(C)cccc23)cc1)S(C)(=O)=O | 75%
33 | Fc1ccc(Nc2c3ccccc3nc3ccccc23)cc1 | 25%
34 | CNS(=O)(=O)c1ccc(N=c2c3ccccc3[nH]c3cc(N)ccc23)cc1 | 55%
35 | CCCC(=O)N(c1ccc(Nc2c3ccc([N+](=O)[O-])cc3nc3c(C)cccc23)cc1)S(C)(=O)=O | 85%
36 | CC(Oc1ccc(Nc2c3ccccc3nc3ccccc23)cc1)C(=O)O (stereo not given) | 25%
37 | Cc1ccc2c(Nc3ccc(NS(C)(=O)=O)cc3)c3ccccc3nc2c1 | 85%
38 | NCCCCc1ccc(Nc2c3ccccc3nc3cc([N+](=O)[O-])ccc23)cc1 | 25%
39 | COc1cc(Nc2c3ccccc3nc3ccccc23)ccc1N | 25%
40 | NCCc1ccc(NC(=O)Nc2ccc(N=c3c4ccccc4[nH]c4ccccc34)cc2)cc1 | 170%
41 | N=C(N)NCCCCS(=O)(=O)Nc1ccc(Nc2c3ccccc3nc3cc([N+](=O)[O-])ccc23)cc1 | 110%
42 | CCC(=O)N(c1ccc(Nc2c3ccc([N+](=O)[O-])cc3nc3c(C)cccc23)c(OC)c1)S(C)(=O)=O | 72%
43 | COc1ccc(Nc2c3ccccc3nc3cc([N+](=O)[O-])ccc23)cc1 | 30%
44 | NC(=O)CCCCc1ccc(Nc2c3ccccc3nc3ccccc23)cc1 | 82%
45 | COc1cc(NS(C)(=O)=O)ccc1Nc1c2ccccc2nc2cc(N)ccc12 | 102%
